From paper PMC10743653, “Combined In Silico and In Vitro Analyses to Assess the Anticancer Potential of Thiazolidinedione–Thiosemicarbazone Hybrid Molecules” (International Journal of Molecular Sciences, 2023)

Assays:
T98G cells = assay: MTT assay, T98G; format: cell-based, human; conditions: for IC50: Homo sapiens, T98G, MTT, 24 h treatment, mean ± SD; for SI (selectivity index): IC50 CCD 841 CoTr divided by IC50 T98G
Protocol: (§1) The effects of TZD–TSCs 2–5 on the cellular viability of a panel of cell lines were investigated through an 3-(4,5-dimethylthiazol-2-yl)-2,5-diphenyl-2H-tetrazolium bromide (MTT) assay, following a 24 h treatment with the compounds. The panel consisted of three solid tumor cells: T98G (glioblastoma multiforme), HepG2 (hepatocellular carcinoma, epithelial), and HT29 (colon adenocarcinoma, epithelial), as well as noncancerous cells CCD 841 CoTr (normal colon, epithelial).
(§2) Primary single dose screenings of TZD–TSCs 2–5 were performed at a concentration of 200 μg/mL, and those that elicited a greater than 80% inhibition of cell proliferation were analyzed at several concentrations, to find their half-maximal inhibitory concentration (IC50). The IC50 values, reported as the mean ± SD in Table 2, indicate the concentration of the tested compound that inhibits the growth/viability of the cancer cell population by 50%. In this specific case of an MTT assay, which measures the activity of mitochondrial dehydrogenases (as an indicator of cell viability), the IC50 values stand for the concentration that inhibits the metabolic activity of cells by 50%.
(§3) Human colon adenocarcinoma cells, HT29 (ATCC no. HTB-38), derived from a grade I tumor, were cultured in roswell park memorial institute Medium (RPMI) 1640 medium, supplemented with 10% fetal calf serum (FCS) (GibcoTM, Paisley, UK) and antibiotics (100 U/mL penicillin and 100 μg/mL streptomycin) (Sigma, St. Louis, MO), at 37 °C in a humidified atmosphere with 5% CO2. Human normal colon epithelial cells, CCD 841 CoTr (ATCC no. CRL-1807), were cultured in RPMI 1640 + dulbecco’s modified eagle medium (DMEM) (1:1) medium (Sigma, St. Louis, MO), supplemented with 10% FCS and antibiotics, at 34 °C in a 5% CO2/95% air atmosphere. Human glioblastoma T98G cells were cultured in Dulbecco’s Modified Eagle’s Medium (DMEM) (Sigma Aldrich, St. Louis, MO, USA), supplemented with 10% fetal bovine serum (FBS), penicillin (100 U/mL), and streptomycin (100 μg/mL). Human hepatocellular carcinoma cells, HepG2, were maintained in Eagle’s Minimum Essential Medium, supplemented with 10% FBS, penicillin (100 U/mL), and streptomycin (100 μg/mL).
(§4) After 24 h of incubation of the cells with the tested compounds in 100 μL of culture medium, MTT solution (5 mg/mL, 25 μL/well) was added and incubated for an additional 3 h. The purple crystals of formazan which formed in the medium were solubilized overnight in 10% sodium dodecyl sulphate (SDS) in a 0.01 M HCl mixture. The product was quantified spectrophotometrically by measuring its absorbance at 570 nm using an Emax Microplate Reader (Molecular Devices Corporation, Menlo Park, CA, USA).

HT29 cells [1] = assay: MTT assay, HT29; format: cell-based, human; conditions: for IC50: Homo sapiens, HT-29, HT29, MTT, 24 h treatment, mean ± SD; for SI (selectivity index): IC50 CCD 841 CoTr divided by IC50 HT29
Protocol: as §1, §2, §3, §4

HepG2 cells = assay: MTT assay, HepG2; format: cell-based, human; conditions: for IC50: Homo sapiens, HepG2, MTT, 24 h treatment, mean ± SD; for SI (selectivity index): IC50 CCD 841 CoTr divided by IC50 HepG2
Protocol: as §1, §2, §3, §4

[2] = DPPH free radical scavenging test
From the text: (§5) Antioxidant activity is a complex procedure, usually happening through several multiple or predominant chemical mechanisms (i.e., hydrogen atom transfer (HAT), single electron transfer (SET), and the ability to chelate transition metals), and it is influenced by many factors, which cannot be fully described with one single method. Therefore, it is important to perform more than one type of measurement to take into account the various mechanisms of antioxidant action. In this study, to assess the antioxidant activity of TZD–TSCs 2–5, two complementary tests were used: a DPPH (2,2-diphenyl-1-picrylhydrazyl) free radical-scavenging ability assay, that detects the HAT and SET mechanisms, and a FRAP (ferric reducing antioxidant power) assay, that prefers the […] mechanism. The antioxidant powers of 2–5 were compared to standard antioxidants, such as the water-soluble synthetic analogue of vitamin E (Trolox) and ascorbic acid (vitamin C).
The free radical scavenging activity of […] was measured by the DPPH assay. Briefly, 100 μl of DPPH solution (0.2 mg/mL in ethanol) was added to 100 μL of the tested compound concentrations (25, 75, 150, and 200 μg/mL, respectively). Trolox, at increasing concentrations (1–50 μg/mL), was used as a standard. After 20 min of incubation at room temperature, the absorbances of the solutions were measured at 515 nm. The lower the absorbance, the higher the free radical scavenging activity of the compound. The activity of each compound was determined by comparing its absorbance with that of the standard.
The ability of the compounds to scavenge the DPPH radical was calculated by the following formula:DPPH scavenging effect (%) = [(Xcontrol − Xcompound/Xcontrol) × 100], where Xcontrol is the absorbance of the control and Xcompound is the absorbance in the presence of TZD-TSCs preparations.

CCD 841 CoTr cells [3] = assay: Nitric oxide measurement (Griess), CCD 841 CoTr; format: cell-based, human; conditions: 200 μg/mL
Protocol: (§6) Nitrate, i.e., a stable end product of NO, was measured in culture supernatants with a spectrophotometric method based on the Griess reaction. Culture supernatants were collected from the cell cultures treated with specific concentrations of the tested compounds (25, 75, 150, and 200 μg/mL, respectively). Briefly, 100 μL of the culture supernatant was placed in 96-well flat-bottomed plates in triplicate and incubated with 100 μL of Griess reagent (1% sulfanilamide/0.1% N-(1-naphthyl)ethylenediamine dihydrochloride) in 3% H3PO4 at room temperature for 10 min. The optical density was measured at 550 nm using a microplate reader. A standard curve was prepared using 0.5–25 μM sodium nitrite (NaNO2) for calibration.

CCD 841 CoTr cells [4] = assay: MTT assay, normal colon epithelial cells; format: cell-based; conditions: Homo sapiens, CCD 841 CoTr (noncancerous), 24 h treatment, mean ± SD
Protocol: as §1, §2, §3, §4

[5] = Ferric-reducing antioxidant power (FRAP) assay
From the text: as §5
Each compound concentration (25, 75, 150, and 200 μg/mL, respectively) was dissolved in Milli-Q water and mixed with an equal volume of 0.2 M sodium phosphate buffer (pH 6.6) and 1% potassium ferricyanide. The mixture was incubated for 30 min at 37 °C. Thereafter, 10% trichloroacetic acid (w/v) was added and the mixture was centrifuged at 1000 g for 5 min. One mL of the upper layer was mixed with an equal volume of Milli-Q water and 0.1% ferric chloride. The absorbance was read at 700 nm using an EL800 Universal Microplate Reader (BioTek Instruments, Winooski, VT, USA). Ascorbic acid (0–150 μg/mL) was used as a positive control.

HT29 cells [6] = assay: Nitric oxide measurement (Griess), HT29; format: cell-based, human
Protocol: as §6

HDAC4 = tested on: HDAC4; parameters: method as in PMID 34006099; conditions: cited from earlier work
CEM cells = tested on: CEM cells; parameters: method as in PMID 34006099; conditions: read-out: IC50, antiproliferative effects against CEM cells; cited from earlier work
PPARγ = tested on: PPARγ; parameters: method as in PMID 34006099; conditions: cited from earlier work

| Structure (SMILES) | IC50 (T98G cells) | IC50 (HT29 cells [1]) | IC50 (HepG2 cells) | DPPH reduction value corresponding to concentration of Trolox ([2]; compound at 25 μg/mL) | DPPH reduction value corresponding to concentration of Trolox ([2]; compound at 75 μg/mL) | DPPH reduction value corresponding to concentration of Trolox ([2]; compound at 150 μg/mL) | DPPH reduction value corresponding to concentration of Trolox ([2]; compound at 200 μg/mL) | NO production, [NO2^−] (CCD 841 CoTr cells [3]) | SI (selectivity index) (T98G cells) | SI (selectivity index) (HT29 cells [1]) | IC50 (CCD 841 CoTr cells [4]) | SI (selectivity index) (HepG2 cells) | FRAP reduction value corresponding to concentration of ascorbic acid ([5]; compound at 25 μg/mL) | FRAP reduction value corresponding to concentration of ascorbic acid ([5]; compound at 75 μg/mL) | FRAP reduction value corresponding to concentration of ascorbic acid ([5]; compound at 150 μg/mL) | FRAP reduction value corresponding to concentration of ascorbic acid ([5]; compound at 200 μg/mL) | NO production, [NO2^−] (HT29 cells [6]; HT29, 25 μg/mL) | other results |
| --- | --- | --- | --- | --- | --- | --- | --- | --- | --- | --- | --- | --- | --- | --- | --- | --- | --- | --- |
| COc1cc([C@@H]2c3cc4c(cc3[C@@H](O[C@@H]3O[C@@H]5CO[C@@H](C)O[C@H]5[C@H](O)[C@H]3O)[C@H]3COC(=O)[C@H]23)OCO4)cc(OC)c1O [Etoposide, reference compound] | > 160 µM | 161 ± 8.51 µM | 61.9 ± 2.97 µM |  |  |  |  |  |  |  |  |  |  |  |  |  |  |  |
| O=C(C=C1SC(=O)NC1=O)Oc1cccc(C=NNC(=S)Nc2ccccc2Cl)c1 [TZD–TSC 4] | 42.4 ± 2.23 µM | 117 ± 9.37 µM | 20.1 ± 1.19 µM | 2.834 µg/mL | 6.381 µg/mL | 13.982 µg/mL | 17.638 µg/mL | 0.639 µM | 2.06 | 0.75 | 87.3 ± 5.06 µM | 4.34 | 1.62 µg/mL | 5.95 µg/mL | 4.05 µg/mL | 5.41 µg/mL | 0.558 µM |  |
| O=C(C=C1SC(=O)NC1=O)Oc1ccc(C=NNC(=S)Nc2ccc(Cl)cc2Cl)cc1 [TZD–TSC 5] | 93.6 ± 3.45 µM | 119 ± 10.7 µM | 13.9 ± 0.59 µM | 0.768 µg/mL | 2.689 µg/mL | 9.964 µg/mL | 15.177 µg/mL | 0.272 µM | 0.79 | 0.62 | 74.2 ± 2.3 µM | 5.35 | 2.70 µg/mL | 2.43 µg/mL | 4.59 µg/mL | 9.19 µg/mL | ~ 0.272 μM | NO production, [NO2^−] (HT29 cells [6]; HT29, 200 μg/mL): ~ 0.272 μM |
| O=C(COc1ccc2cc(/C=C3/SC(=O)NC3=O)ccc2c1)Nc1c(F)cc(F)cc1Br [compound 1] |  |  |  |  |  |  |  |  |  |  |  |  |  |  |  |  |  | Activity toward HDAC4 (HDAC4): low micromolar concentration; IC50 (CEM cells): 9.6 µM; Activity toward PPARγ (PPARγ): low micromolar concentration |
